Test results published in US10251849B2, “Sublingual compositions including epinephrine nanoparticles” (NOVA SOUTHEASTERN UNIVERSITY, priority 2012, dated 2019).
Counter-ions that a name gives are not always drawn. Like-named read-outs stand apart in the source and are kept apart here.

Legend:
[1] = Description: Supernatant solution was withdrawn and filtered through 0.22 μm nylon syringe filters to be analyzed for the quantification of dissolved epinephrine.
Analysis and condition were performed according to USP 26th edition, 2003 “Epinephrine Injection Monograph.”

[2] = UV absorptivity of oxidative products of epinephrine at 310 nm; format: physicochemical; settings: controls, not stored, 4 mg/mL
Description: The supernatant was visually inspected against white background for any discoloration (USP/NF. Official Monograph: Epinephrine Injection. 31/26 ed. Rockville, Md.: United States Pharmacopeial Convention, Inc.; 2008) and then filtered and diluted to make 4 mg/mL. […] The absorptivity of all samples and controls was calculated by dividing the absorbance by the product of the concentration of the drug (g/L) and the path length (cm) of the cell used to measure the absorbance (USP/NF. Physical Tests: Spectrophotometery and Light-Scattering (851). 31/26 ed. Rockville, Md.: United States Pharmacopeial Convention, Inc.; 2008).
The absorptivity of oxidative products of epinephrine in the tablets from each formulation at each storage condition and in controls was statistically compared by two-way ANOVA and Tukey-Kramer tests.

[3] = remark: listed apart in the source
Description: Samples were prepared in triplicates for each concentration, n=3. All prepared samples were processed using LV-1 High Shear Fluid Processor “Microfluidizer” (Microfluidics, Newton, Mass.) equipped with G10Z reaction chamber under various pressures ranging from 15 to 30 KPsi for single or several passes. The microfluidizer-receiving coil was immersed in ice to reduce the heat produced during the process for heat-sensitive drugs. The particle size and potential of the produced nanosuspension were measured. The nanosuspension was centrifuged at 15,000 rpm and 15° C. for 30 minutes to collect the nanoparticles, and the solvent was then removed. The collected nanoparticles were completely dried by speed vacuum concentrator or lyophilization.
(§1) Nanoparticle Characterization: The particle size distribution and zeta potential of the nanosuspension was measured before and after size reduction by volume and by intensity using Mastersizer (Malvern) and Zetasizer Nano-ZS90 (Malvern), respectively. The average of 3 measurements for each sample was reported.

[4] = various concentrations
Description: as §1

CNC[C@H](O)c1ccc(O)c(O)c1 [Epinephrine Base, epinephrine]
Amount Dissolved ([1]; solubility in water): 53.37 µg/mL

CNC[C@H](O)c1ccc(O)c(O)c1 [epinephrine bitartrate, (−)-3,4-dihydroxy-α-[(methylamino)methyl]benzyl alcohol (+)-tartrate (1:1) salt]
Absorptivity of Oxidative Products of Epinephrine (Mean ± SD) [2]: 0.001 ± 0.000 | Amount Dissolved ([1]; solubility in acetone): 31.28 µg/mL | Amount Dissolved ([1]; solubility in acetonitrile): 15.46 µg/mL | Amount Dissolved ([1]; solubility in chloroform): 1.87 µg/mL | Amount Dissolved ([1]; solubility in ethyl acetate): 12.60 µg/mL | Amount Dissolved ([1]; solubility in hexane): 0.53 µg/mL | Amount Dissolved ([1]; solubility in isopropyl alcohol): 12.30 µg/mL | Amount Dissolved ([1]; solubility in methanol): 209.01 µg/mL | Amount Dissolved ([1]; solubility in tetrahydrofuran (THF)): 155.18 µg/mL | Mean ± SD particles size ([3]; 0 passes, before processing, n = 6): 131,800 ± 10500 nm | polydispersity (pdi) ([3]; 0.7 mg/ml, 1 pass at 30 KPsi): (0.257 + 0.060) | polydispersity (pdi) ([3]; 0.7 mg/ml, 2 passes at 30 KPsi): (0.119 ± 0.052) | polydispersity (pdi) ([3]; 0.7 mg/ml, 4 passes at 30 KPsi): (0.217 ± 0.035) | polydispersity (pdi) ([3]; 0.7 mg/ml, 5 passes at 30 KPsi): (0.170 ± 0.070) | polydispersity (pdi) ([3]; 0.7 mg/ml, 6 passes at 30 KPsi): (0.195 ± 0.067) | polydispersity (pdi) ([3]; 1.4 mg/ml, 1 pass at 30 KPsi): (0.239 + 0.044) | polydispersity (pdi) ([3]; 1.4 mg/ml, 2 passes at 30 KPsi): (0.158 ± 0.021) | polydispersity (pdi) ([3]; 1.4 mg/ml, 4 passes at 30 KPsi): (0.178 ± 0.039) | polydispersity (pdi) ([3]; 3.5 mg/ml, 1 pass at 30 KPsi): (0.335 + 0.112) | polydispersity (pdi) ([3]; 3.5 mg/ml, 2 passes at 30 KPsi): (0.576 ± 0.080) | polydispersity (pdi) ([3]; 4.5 mg/ml, 1 pass at 30 KPsi): (0.321 + 0.060) | polydispersity (pdi) ([3]; 4.5 mg/ml, 2 passes at 30 KPsi): (0.315 ± 0.055) | particle size before size reduction ([3]; as stated in summary text): 150.7±5 μm | 10th percentile (Dv0.1) ([3]; before processing, n = 6): 39.8 ± 3.0 μm | 90th percentile (Dv0.9) ([3]; before processing, n = 6): 254.8 ± 20.1 | median (Dv0.5) ([3]; before processing, n = 6): 113.6 ± 9.1 μm | color of the fabricated nanosuspension [4]: no change in color
